Results on two molecules are retold here after patent US7629150B2, “Transformed cell harboring DNA or RNA encoding sugar chain synthesizing agent having β1,3-N-acetylglucosaminyltransferase activity” (Kyowa Hakko Kirin Co., Ltd., priority 2000, dated 2009).

The assay concerns the target T1, G6 polypeptide (Homo sapiens, UniProt Q9BYG0).
T1 construct: In order to obtain a DNA encoding the full-length G6 polypeptide, PCR was carried out; expressed in transfected cells; Triton X-100 cell extract
T1 sequence (Q9BYG0 1-378): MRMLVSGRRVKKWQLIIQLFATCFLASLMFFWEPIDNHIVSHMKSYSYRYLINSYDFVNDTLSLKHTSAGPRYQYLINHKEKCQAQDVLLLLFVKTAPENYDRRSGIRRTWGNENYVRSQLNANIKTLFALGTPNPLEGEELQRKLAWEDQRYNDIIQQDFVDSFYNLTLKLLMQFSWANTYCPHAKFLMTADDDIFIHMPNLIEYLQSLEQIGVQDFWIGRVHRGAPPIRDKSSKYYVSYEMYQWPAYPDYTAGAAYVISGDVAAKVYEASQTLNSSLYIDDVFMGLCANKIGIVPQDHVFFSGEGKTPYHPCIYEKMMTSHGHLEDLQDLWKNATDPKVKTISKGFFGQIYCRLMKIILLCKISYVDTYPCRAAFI
Briefly: β1,3-N-acetylglucosaminyltransferase activity of cell extract of Namalwa cells transfected with pAMo-G6, 2-aminobenzamide-labeled oligosaccharide substrates. The class given is biochemical. The settings on record: cell extract (20 μg protein) of pAMo-G6-transfected Namalwa cells; 2-aminobenzamide-labeled substrate; 37° C., 16 hours. On the procedure:
The transformant cells (about 2×10^7 cells) obtained in Example 6(1) were put into a microtube (1.5 ml: manufactured by Eppendorf), and the cells were collected by centrifugation (550×g, 7 minutes). The cells were washed with 0.9 ml of PBS, the washed cells were suspended in a solution (100 μl) containing 20 mmol/l HEPES (pH 7.2) and 2% Triton X-100 and then the cells were disrupted using a sonicator (Bioruptor; manufactured by COSMO BIO). After the mixture was allowed to stand at 4° C. for 1 hour, the supernatant was obtained by centrifugation (550×g, 7 minutes). The supernatant was used as an enzyme sample.
A β1,3-N-acetylglucosaminyltransferase activity was measured by using this enzyme sample and 2-aminobenzamide-labeled sugar chain substrates. […]
The activity measurement was carried out using known methods [FEBS, 462, 289 (1999), J. Biol. Chem., 269, 14730-14737 (1994), J. Biol. Chem., 267, 23507 (1992), J. Biol. Chem., 267, 2994 (1992)]. Specifically, the reaction was carried out at 37° C. for 16 hours in 20 μl of an assay solution [150 mmol/l MOPS (pH 7.5), 50 mmol/l UDP-GlcNAc (manufactured by SIGMA), 20 mmol/l sodium cacodylate (pH 7.2), 0.4% Triton CF-54, 10 mmol/l MnCl2, 15 mmol/l 2-aminobenzamide-labeled sugar chain substrate, the above cell extract (20 μg as protein)], and then the product was detected by high performance liquid chromatography (HPLC). […]

SMILES strings stand for the structures.

As to `CC(=O)N[C@H]1[C@H](O[C@H]2[C@@H](O)[C@@H](CO)O[C@@H](O[C@H]3[C@H](O)[C@@H](O)C(O)O[C@@H]3CO)[C@@H]2O)O[C@H](CO)[C@@H](O[C@@H]2O[C@H](CO)[C@H](O)[C@H](O)[C@H]2O)[C@@H]1O` (mixture of isomers) [LNnT, lacto-N-neotetraose], the “ratio of the substrate converted into the product” value is recorded as 6.11%.
Take `CC(=O)N[C@H]1[C@H](O[C@H]2[C@@H](O)[C@@H](CO)O[C@@H](O[C@H]3[C@H](O)[C@@H](NC(C)=O)C(O)O[C@@H]3CO)[C@@H]2O)O[C@H](CO)[C@@H](O[C@@H]2O[C@H](CO)[C@H](O)[C@H](O)[C@H]2O)[C@@H]1O` (some centres unmarked) [2LN, Galβ1-4GlcNAcβ1-3Galβ1-4GlcNAc]: the “ratio of the substrate converted into the product” value was 3.95%.
